{
  "source": "patent US20150030566A1",
  "about": "“ANTIMICROBIAL PEPTIDE COMPOSITIONS FOR PLANTS” (Stellenbosch University, priority 2012, published 2015)",
  "key": {"[1]": {"system": "Grapevine tissue culture plants", "experiment": "Plant culture assay, growth and development of plantlets", "format": "in vivo", "conditions": "15 mg/L in MS medium", "protocol": "(§1) The Trc mix and GS were also tested for use in the sterilization of field-gathered grapevine material for use in plant cultures.\n(§2) Grapevine tissue culture plants were transferred to MS medium containing GS or Trc mix at a concentration of 15 μg/mL and incubated at 25° C. with a 16 h/8 h day night cycle. The growth and development of the grapevine plantlets were monitored and compared to the control set of plants which were maintained on MS-medium without GS or Trc mix."}, "Delphinium flowers": {"system": "Delphinium flowers", "experiment": "Cut flower trials, Delphinium", "format": "in vivo, Delphinium hybrid", "protocol": "Trials with Delphinium flowers and 25 mg/L and 50 mg of GS or Trc mix and GS+Trc mix (50 mg/L combined concentration), were conducted.\nCut flower trials on mini hybrids of the African daisy (Gerbera hybrid) and blue larkspur (Delphinium hybrid) were conducted on 3-day old flowers. Flowers were prepared by cutting 3-5 cm of each stem and each placed separately in a measuring flask with 100 mL containing either no additive, Trc mix (35 mg/L for Gerbera and 25 mg/l for Delphinium), GS (35 mg/L for Gerbera and 25 mg/L for Delphinium), Trc mix+GS (combined 70 mg/L for Gerbera and combined 50 mg/L for Delphinium) or commercial additive for flower preservation. Flowers (6-12 per trial) were kept in a room with both natural and fluorescent lighting (16 hours light/day) at 22±1° C. The volume of water was monitored every 24 hours and noted for each flower.\nFlower condition was rated from 0 to 5, with 0=dead, 1=flower petals dehydrated, closed and drooping, 2=flower still partially open but dehydrated and drooping, 3=flower starts drooping, petals soft, 4=some petals becoming soft, flower still in good condition and 5=flower is in pristine condition with taught petals and stem/leaves."}, "Botrytis cinerea [2]": {"system": "Botrytis cinerea", "experiment": "Agar (gel) assay", "format": "cell-based", "set-up": "MIC + SEM: unit not given beside the values", "protocol": "(§3) Microdilution broth and agar assays were used to assess the antifungal activity of the cyclic decapeptides in liquid media and on solid (gel) media, respectively.\n(§4) The antibacterial activity of the tyrocidines and gramicidin S against all the bacteria tested was determined by the methods described by Du Toit E A and Rautenbach M (2000) J. Microbiol. Methods, 42, 159-165. The antifungal activity of the tyrocidines against all the […] tested was determined by the methods described by Troskie A M, Vlok N M and Rautenbach M (2012) J. Microbiol. Methods, 91, 551-558."}, "Phomopsis viticola": {"system": "Phomopsis viticola", "experiment": "Agar assay", "format": "cell-based", "set-up": "unit not given beside the values", "protocol": "as §3, §4"}, "[3]": {"system": "Cylindrocarpon liriodendri", "experiment": "Agar assay", "format": "cell-based", "set-up": "unit not given beside the values", "protocol": "as §3, §4"}, "Escherichia coli HB101": {"system": "Escherichia coli HB101", "experiment": "Agar assay", "format": "cell-based", "set-up": "unit not given beside the values", "protocol": "as §3, §4"}, "[4]": {"system": "Micrococcus luteus NCTG 8340", "experiment": "Agar assay", "format": "cell-based", "set-up": "unit not given beside the values", "protocol": "as §3, §4"}, "[5]": {"system": "Talaromyces ramulosus (peach isolate)", "experiment": "Agar assay", "format": "cell-based", "set-up": "unit not given beside the values", "protocol": "as §3, §4"}, "Fusarium solani": {"system": "Fusarium solani", "experiment": "Microdilution broth assay", "format": "cell-based", "set-up": "MIC against F. solani in PDB (n): unit not given beside the values", "protocol": "as §3, §4"}, "Cylindrocarpon": {"system": "Cylindrocarpon", "experiment": "Hydration tank assay, spore viability", "format": "cell-based", "protocol": "(§5) This loss of activity in solution was, however, overcome by increasing the Trx mix concentration to 20 mg/L. It must also be emphasized that the Trc mix activity was tested at 10 times (10^7 spores/L) the spore concentration used for the testing of commercial fungicides and at 100 times the spore concentration usually observed in contaminated grapevine material (personal communication with the Department of Plant pathology, Stellenbosch University).\n(§6) The activities of the GS and Trc mix were also assessed in the presence of and absence of grapevine stem material in a simulated hydration tank environment. Each 5.0 mL assay contained fungal spores at 10 000 spores/mL, peptide at 10 and 20 μg/mL and grapevine stem material. Grapevine stem material was washed with 70% ethanol and rinsed with sterile water before placement in inoculated hydration tanks, whereafter the Trc mix was added. Controls contained either the peptide or grapevine stem material. The assays were incubated at room temperature for 16 hours, whereafter three 100 μl aliquots of each assay were plated on PDA agar and allowed to grow for three days at 25° C. Some plates were stained with Coomassie brilliant blue stain (0.025% Coomassie, 12.5% isopropanol and 10% acetic acid) for better visualization of the fungal colonies. The number of colonies that developed after three days was recorded and expressed as percentage viable spores after comparing to the control samples which contained no peptide."}, "Phaeoacremonium": {"system": "Phaeoacremonium", "experiment": "Hydration tank assay, spore viability", "format": "cell-based", "protocol": "as §5, §6"}, "Phomopsis": {"system": "Phomopsis", "experiment": "Hydration tank assay, spore viability", "format": "cell-based", "conditions": "10 μg/ml peptide", "protocol": "as §5, §6"}, "bacteria": {"system": "bacteria", "experiment": "Sterilization of field-gathered grapevine material, antibacterial efficacy", "format": "in vivo", "conditions": "selected cases", "protocol": "as §1"}, "Botrytis cinerea [6]": {"system": "Botrytis cinerea", "experiment": "Microdilution broth assay", "format": "cell-based", "set-up": "MIC + SEM / MIC against B. cinerea in PDB (n): unit not given beside the values", "protocol": "as §3, §4"}, "fungal pathogens": {"system": "fungal pathogens", "experiment": "Plant culture assay, fungal pathogens in growth media", "format": "in vivo", "conditions": "without a major detrimental effect to the plant material", "protocol": "as §1, §2"}, "Fusarium verticilliodes": {"system": "Fusarium verticilliodes", "experiment": "Microdilution broth assay", "format": "cell-based", "protocol": "as §3, §4"}, "Fusarium oxysporum": {"system": "Fusarium oxysporum", "experiment": "Microdilution broth assay", "format": "cell-based", "protocol": "as §3, §4"}, "[7]": {"system": "Penicillium glabrum (wood isolate)", "experiment": "Microdilution broth assay", "format": "cell-based", "protocol": "as §3, §4"}, "[8]": {"system": "Penicillium expansum (peach isolate)", "experiment": "Microdilution broth assay", "format": "cell-based", "protocol": "as §3, §4"}, "[9]": {"system": "Penicillium digitatum (citrus isolate)", "experiment": "Microdilution broth assay", "format": "cell-based", "protocol": "as §3, §4"}, "[10]": {"system": "Aspergillus fumigatus ATCC 204305", "experiment": "Microdilution broth assay", "format": "cell-based", "protocol": "as §3, §4"}, "[11]": {"conditions": "potato dextrose broth (low salt PDB)"}},
  "note": "Residues, ends and D or L forms follow the SMILES beside them.",
  "data": [
    {"smiles": "CC(C)C[C@@H]1NC(=O)[C@H](CCCN)NC(=O)[C@H](C(C)C)NC(=O)C2CCCN2C(=O)[C@@H](Cc2ccccc2)NC(=O)[C@H](CC(C)C)NC(=O)[C@H](CCCN)NC(=O)[C@H](C(C)C)NC(=O)C2CCCN2C(=O)[C@@H](Cc2ccccc2)NC1=O", "note": "(stereo partly drawn) [GS, Cyclo-(VOLfPVOLfP)] (HELM PEPTIDE1{L.[dF].[O=C(C1CCCN1[*:1])[*:2]].V.[Orn].L.[dF].[O=C(C1CCCN1[*:1])[*:2]].V.[Orn]}$PEPTIDE1,PEPTIDE1,1:R1-10:R2$$$V2.0)", "values": [
      {"measurement": "effect on root growth", "setting": "[1]", "value": "root growth was visibly affected"},
      {"measurement": "effect on plant culture survival and growth", "setting": "[1]; vs control plants", "value": "enhanced plant culture survival and foliage growth"},
      {"measurement": "phytotoxicity", "setting": "Delphinium flowers; 25 mg/L", "value": "did not show overt phytotoxicity"},
      {"measurement": "phytotoxicity", "setting": "Delphinium flowers; 50 mg/L", "value": "proved to be phytotoxic"},
      {"measurement": "MIC + SEM", "setting": "Botrytis cinerea [2]; Agar, Botrytis cinerea", "value": "2.5 ± 0.3"},
      {"measurement": "IC50 ± SEM", "setting": "Botrytis cinerea [2]; B. cinerea on PDA", "value": "2.0 ± 0.3", "unit": "µg/mL"},
      {"measurement": "MIC ± SEM", "setting": "Botrytis cinerea [2]; B. cinerea on PDA", "value": "2.8 ± 0.3", "unit": "µg/mL"},
      {"measurement": "IC50 ± SEM", "setting": "Botrytis cinerea [2]; B. cinerea on YTSA", "value": "4.5 ± 1.1", "unit": "µg/mL"},
      {"measurement": "MIC ± SEM", "setting": "Botrytis cinerea [2]; B. cinerea on YTSA", "value": "8.2 ± 1.8", "unit": "µg/mL"},
      {"measurement": "MIC + SEM", "setting": "Phomopsis viticola", "value": "<10"},
      {"measurement": "MIC + SEM", "setting": "[3]", "value": "<10"},
      {"measurement": "MIC + SEM", "setting": "Escherichia coli HB101", "value": 40},
      {"measurement": "MIC + SEM", "setting": "[4]", "value": 6},
      {"measurement": "MIC + SEM", "setting": "[5]", "value": "3.6 ± 0.3"},
      {"measurement": "MIC + SEM", "setting": "Fusarium solani; Broth, Fusarium solani", "value": "2.5 ± 0.1"},
      {"measurement": "MIC against F. solani in PDB (n)", "setting": "Fusarium solani; [11]", "value": "2.2 ± 0.1"},
      {"measurement": "percentage viable spores compared to the growth/survival controls", "setting": "Cylindrocarpon; +gvs, 10 μg/ml peptide", "value": 0, "unit": "%"},
      {"measurement": "percentage viable spores compared to the growth/survival controls", "setting": "Cylindrocarpon; +gvs, 20 μg/ml peptide", "value": 0, "unit": "%"},
      {"measurement": "percentage viable spores compared to the growth/survival controls", "setting": "Cylindrocarpon; −gvs, 10 μg/ml peptide", "value": 0, "unit": "%"},
      {"measurement": "percentage viable spores compared to the growth/survival controls", "setting": "Cylindrocarpon; −gvs, 20 μg/ml peptide", "value": 0, "unit": "%"},
      {"measurement": "percentage viable spores compared to the growth/survival controls", "setting": "Phaeoacremonium; +gvs, 10 μg/ml peptide", "value": 0, "unit": "%"},
      {"measurement": "percentage viable spores compared to the growth/survival controls", "setting": "Phaeoacremonium; +gvs, 20 μg/ml peptide", "value": 0, "unit": "%"},
      {"measurement": "percentage viable spores compared to the growth/survival controls", "setting": "Phaeoacremonium; −gvs, 10 μg/ml peptide", "value": 0, "unit": "%"},
      {"measurement": "percentage viable spores compared to the growth/survival controls", "setting": "Phaeoacremonium; −gvs, 20 μg/ml peptide", "value": 0, "unit": "%"},
      {"measurement": "percentage viable spores compared to the growth/survival controls", "setting": "Phomopsis; +gvs", "value": 0, "unit": "%"},
      {"measurement": "percentage viable spores compared to the growth/survival controls", "setting": "Phomopsis; −gvs", "value": 0, "unit": "%"},
      {"measurement": "antibacterial efficacy", "setting": "bacteria", "value": "good antibacterial activity"},
      {"measurement": "MIC + SEM", "setting": "Botrytis cinerea [6]; Broth, Botrytis cinerea", "value": "2.8 ± 0.3"},
      {"measurement": "MIC against B. cinerea in PDB (n)", "setting": "Botrytis cinerea [6]; [11]", "value": "1.8 ± 0.3"},
      {"measurement": "concentration sufficient to eliminate fungal pathogens in the growth media", "setting": "fungal pathogens", "value": 15, "unit": "mg/L"},
      {"measurement": "MIC + SEM", "setting": "Fusarium verticilliodes", "value": "3.5 ± 0.3"},
      {"measurement": "MIC + SEM", "setting": "Fusarium oxysporum", "value": "2.6 ± 0.2"},
      {"measurement": "MIC + SEM", "setting": "[7]", "value": "4.0 ± 0.5"},
      {"measurement": "MIC + SEM", "setting": "[8]", "value": "3.7 ± 0.3"},
      {"measurement": "MIC + SEM", "setting": "[9]", "value": "3-4"},
      {"measurement": "MIC + SEM", "setting": "[10]", "value": "8.6 ± 0.7"}
    ]}
  ]
}
